Assays:
[1] = molecular target: T1, human CGRP receptor (SK-N-MC cells) (Homo sapiens, UniProt O60894+Q16602); test: Cyclic AMP Assay, functional antagonism of CGRP-induced cyclic AMP formation; assay type: cell-based; conditions: SK-N-MC cells, 0.3 nM CGRP; read-out: cAMP Function IC50
T1 construct: SK-N-MC cells that endogenously express the human CGRP receptor; endogenous in cells; host or cells: SK-N-MC cells
Procedure, shortened: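 SK-N-MC cells, which endogenously express human CGRP receptor, stimulated with 0.3 nM CGRP with or without compound for 30 min at room temperature. Cellular cAMP extracted by lysis and quantified by SPA radioimmunoassay; IC50 from inhibition of CGRP-induced cAMP.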

[2] = molecular target: T2, CGRP receptor (SK-N-MC cell membranes) (Homo sapiens, UniProt O60894+Q16602); test: CGRP Binding Assay ([125I]-CGRP radioligand binding, SK-N-MC homogenate); conditions: displacement of [125I]-CGRP, SK-N-MC homogenate; read-out: CGRP binding IC50
T2 construct: endogenous in cells; host or cells: SK-N-MC cells (membrane homogenate)
T2 sequence (Q16602 23-461): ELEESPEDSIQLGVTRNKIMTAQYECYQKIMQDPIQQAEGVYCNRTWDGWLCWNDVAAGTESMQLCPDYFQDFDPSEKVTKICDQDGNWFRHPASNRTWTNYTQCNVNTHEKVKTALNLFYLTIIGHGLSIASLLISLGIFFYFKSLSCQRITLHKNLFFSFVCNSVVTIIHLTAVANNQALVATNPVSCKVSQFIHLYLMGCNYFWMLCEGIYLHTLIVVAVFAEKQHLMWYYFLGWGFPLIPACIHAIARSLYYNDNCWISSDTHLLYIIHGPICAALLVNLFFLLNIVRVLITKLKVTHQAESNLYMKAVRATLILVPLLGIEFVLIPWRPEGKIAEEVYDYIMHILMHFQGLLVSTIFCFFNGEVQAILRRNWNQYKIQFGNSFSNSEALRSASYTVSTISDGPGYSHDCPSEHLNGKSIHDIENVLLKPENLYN
T2 sequence (O60894 27-148): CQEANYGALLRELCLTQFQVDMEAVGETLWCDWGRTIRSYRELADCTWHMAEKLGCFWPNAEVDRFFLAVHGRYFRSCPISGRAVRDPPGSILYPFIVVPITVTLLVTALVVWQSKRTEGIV

T1 sequence (Q16602 23-461): as the sequence (Q16602 23-461) above
T1 sequence (O60894 27-148): as the sequence (O60894 27-148) above

Structure (SMILES)	IC50 [1]	IC50 [2]
Cc1cc(CC(NC(=O)N2CCC(N3Cc4ccccc4NC3=O)CC2)C(=O)N2CCC(N3CCCCC3)CC2)cc2cn[nH]c12 (racemic) [Example 16, (±)-4-(2-Oxo-1,4-dihydro-2H-quinazolin-3-yl)-piperidine-1-carboxylic acid[2-[1,4′]bipiperidinyl-1′-yl-1-(7-methyl-1H-indazol-5-ylmethyl)-2-oxo-ethyl]-amide]	< 10 nM	< 10 nM
Cc1cc(CC(CC(=O)N2CCC(N3Cc4ccccc4NC3=O)CC2)C(=O)N2CCC(N3CCCCC3)CC2)cc2cn[nH]c12 (racemic) [Example 69, (±)-1-[1,4′]Bipiperidinyl-1′-yl-2-(7-methyl-1H-indazol-5-ylmethyl)-4-[4-(2-oxo-1,4-dihydro-2H-quinazolin-3-yl)-piperidin-1-yl]-butane-1,4-dione]	< 10 nM	< 10 nM

— US7842808B2, “Anti-migraine spirocycles” (Bristol-Myers Squibb Company, priority 2002, dated 2010)
